The record followed here is PMC6642484, “Cell penetrating caspase substrates promote survival of the transplanted cells” (BMC Research Notes, 2019).

What all share (assay type): cell-based
The test system of data set [1] is N1E and R3 cells. Briefly: Camptothecin-induced apoptosis, LIVE/DEAD staining. The following applies: Camptothecin 10 μM, 18 h, no peptide. Here is the method:
(§1) N1E and R3 ([33-10ras3] (ATCC® CRL-2764™)) cells were grown to about 80% of confluency in 6-well plates covered with D-poly-lysine. Peptides (500 nM or 10 µM) were added to the cells 1 h before treatments. The tested apoptogenic treatments were: Staurosporine (100 nM, 18 h), serum withdraw (20 days for N1E cells and 5 days for R3 cells), heat shock (43 °C, 1 h plus overnight recovery), Camptothecin (10 μM, 18 h), H2O2 (100 μM, 18 h). After the treatment the cells were carefully washed with PBS and stained simultaneously with Calcein A and Ethidium homodimer-1 (LIVE/DEAD® Viability/Cytotoxicity Kit, LifeTechnologies) for 30 min at room temperature. Cells were photographed in an inverted microscope immediately after staining. Percentage of survived cells was calculated from 3 randomly selected fields of view; average cell death rate ± SEM was calculated using GraphPad Prism (version 6.0 h for MacOS, GraphPad Software, La Jolla, USA). Antibodies specific to cleaved Caspase-3 (Asp175) (Rabbit monoclonal 5A1E, CST) were used to visualize Caspase-3 activation in N1E cells by Western blotting.

Data set [2] relates to N1E cells. Briefly: MALDI-TOF analysis of lysates from peptide-loaded cells. The following applies: 500 nM peptide, 30 min at 37 °C, Triton X-100 lysate after trichloroacetic acid sedimentation, not quantitative. Here is the method:
About 10^6 cells (N1E cells) were exposed to 500 nM of DL18 peptide in normal culture media for 30 min at 37 °C. After exposure the cells were washed twice with PBS, lyzed with 1% Triton X-100 in distilled water and the proteins were sedimented with equal volume of 40% trichloroacetic acid. After centrifugation (9000g, 20 min) 20 μl of supernatant was applied on MALDI plate, mixed with solution of 2,5-dihydroxybenzoic acid and subjected for MALDI-TOF analysis.

The subject of data set [3] is N1E and R3 cells. Briefly: Hydrogen peroxide induced apoptosis, LIVE/DEAD staining. The following applies: H2O2 100 μM, 18 h, cells untreated with peptides; average ± SEM. Here is the method:
as §1

Data set [4] deals with N1E cells. Briefly: Staurosporine-induced cell death, LIVE/DEAD staining. The following applies: overnight exposure to 100 nM Staurosporine, no peptide, average ± SEM. Here is the method: as §1
Data set [5] relates to R3 cells. The data set is described as above. The note with it: Staurosporine 100 nM, no peptide, average ± SEM. Here is the method:
as §1

Where a SMILES comes first, the peptide text is derived from it.

For `CC[C@@]1(O)C(=O)OCc2c1cc1n(c2=O)Cc2cc3ccccc3nc2-1` [Camptothecin], in data set [1], the apoptosis induction result is “induces apoptosis in limited number of cells”.

For `CC[C@@H](C)[C@@H](NC(=O)[C@@H](CCC(=O)O)NC(=O)[C@H](NC(=O)[C@@H](CC(=O)O)NC(=O)[C@@H](CO)NC(=O)CNC(=O)[C@H](N)[C@H](C)O)[C@H](C)O)C(=O)NCC(=O)N[C@@H](CCCNC(=N)N)C(=O)N[C@@H](CCCCN)C(=O)N[C@@H](CCCCN)C(=O)N[C@@H](CCCNC(=N)N)C(=O)N[C@@H](CCCNC(=N)N)C(=O)N[C@@H](CCC(N)=O)C(=O)N[C@@H](CCCNC(=N)N)C(=O)N[C@@H](CCCNC(=N)N)C(=O)N[C@@H](CCCNC(=N)N)C(=O)NCC(=O)O` [DL18] (HELM PEPTIDE1{[dT].G.[dS].[dD].[dT].[dE].[dI].G.R.K.K.R.R.Q.R.R.R.G}$$$$V2.0), the “dynamics of cellular catabolism of the peptide (prevalence of non-metabolized m/z 2158 peak)” value in data set [2] is “not considerable”.

`OO` [H2O2, hydrogen peroxide] had a dead cells in data set [3] of 84.8 ± 4.28%.

The molecule `CN[C@@H]1C[C@H]2O[C@@](C)([C@@H]1OC)n1c3ccccc3c3c4c(c5c6ccccc6n2c5c31)C(=O)NC4` [Staurosporine] had a cell death in data set [4] of 89.67 ± 5.04%. In addition, the dead cells in data set [5] is recorded as 15.33 ± 3.76%.
